Data taken from article PMC7932555, “A diffusible signal factor of the intestine dictates Salmonella invasion through its direct control of the virulence activator HilD” (PLoS Pathogens, 2021).
Numbering of substitutions follows the chain as printed. Where “and” joins values, the source holds several entries; their conditions need not be identical. Equal values may be shown once.

Tests used:
[1] = test system: sipB::lacZY; test: sipB::lacZY reporter β-galactosidase assay in strains expressing wild type or mutant HilD; format: cell-based; settings: 20 μM fatty acid (mix: 20 μM of each)
Description: To test the effect of mutations in hilD, we initially constructed a background Salmonella strain without chromosomal hilC, rtsA and hilD and fused sipB to lacZY to assess SPI-1 expression. hilD with a C-terminal 3XFLAG tag was cloned into pWSK29 under control of the tetRA promoter for tetracycline-inducible expression. This plasmid was subjected to site-directed mutagenesis at specific nucleotides to change selected amino acids to alanine, using the Agilent QuikChange II Site-Directed Mutagenesis kit following their protocol. Mutations were confirmed by DNA sequencing.
Salmonella strains were inoculated into LB buffered with 100 mM MOPS [3-(N-morpholino) propanesulphonic acid] pH 6.7, with necessary antibiotics, and fatty acids or control solvents to be tested. Cultures were incubated at 37° C without aeration overnight, and assays were performed using an established protocol.

[2] = target: T1, HilD^N44A (Salmonella typhimurium, UniProt P0CL08, N44A); test: EMSA of hilA promoter DNA with HilD N44A; format: biochemical; settings: 10 nM hilA promoter DNA, 30 μM fatty acid
T1 construct: made in house; host or cells: E. coli BL21 (DE3)
T1 sequence (P0CL08 1-309 N44A): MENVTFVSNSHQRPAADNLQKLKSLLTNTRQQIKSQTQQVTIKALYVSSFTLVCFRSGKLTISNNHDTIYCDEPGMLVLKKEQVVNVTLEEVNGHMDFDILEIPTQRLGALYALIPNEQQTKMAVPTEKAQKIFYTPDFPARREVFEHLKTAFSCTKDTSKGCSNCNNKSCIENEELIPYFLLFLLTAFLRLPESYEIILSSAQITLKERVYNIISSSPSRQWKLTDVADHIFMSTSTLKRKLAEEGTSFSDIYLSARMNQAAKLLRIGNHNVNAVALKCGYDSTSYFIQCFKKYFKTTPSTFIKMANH
Description: These were performed as previously described. Briefly, 10 nM hilA promoter DNA (-286 to +31) was mixed with 150 nM HilD in a binding buffer (100 mM Tris pH 7.5, 10 mM EDTA, 1M KCl, 1 mM DTT, 50% v/v glycerol). Fatty acids or control solvents were added at various concentrations. Binding reaction was performed at room temperature for 1 hour. Dye solution was added to final concentration of 1X and samples were separated on 10% acrylamide gels. DNA was stained using SYBR Safe and visualized in BioRad GelDoc imaging system.

[3] = target: T2, HilD (Salmonella typhimurium, UniProt P0CL08, R267A); test: HilD half-life (degradation) assay by western blot; format: cell-based; settings: HilD R267A-3XFLAG; 20 μM fatty acid
T2 construct: hilD with a C-terminal 3XFLAG tag was cloned into pWSK29 under control of the tetRA promoter; expressed in transfected cells; host or cells: Salmonella Typhimurium strain carrying pWSK29-PtetRA-hilD-3XFLAG (background with chromosomal hilD, hilC and rtsA null)
T2 sequence (P0CL08 1-309 R267A): T1 sequence (P0CL08 1-309 N44A) with A44N, R267A
Description: (§1) The HilD half-life was assessed as previously described. Salmonella strains having plasmids with tetracycline-inducible hilD or its mutated sequence with a C-terminal 3XFLAG tag and a sipB::lacZ fusion (for invasion gene expression assessment) were grown overnight and then diluted 1:100 into LB buffered with 100 mM MOPS (pH 6.7) with appropriate antibiotics and fatty acids or control solvents. After 2 hours of growth, aliquots were collected to quantitate sipB::lacZ expression in a β-galactosidase assay. Individual cultures were then equilibrated to an OD600 of 1.0 to ensure equal density at the half-life assay beginning point. New protein production was halted by addition of a cocktail of antibiotics (rifampin, streptomycin and spectinomycin). These cultures were incubated at 37°C and aliquots were collected every 30 minutes for 2 hours. Samples were lysed in 5X sample buffer, boiled, and immunoblotted with an anti-FLAG antibody to monitor HilD.

[4] = target: T3, HilD (Salmonella typhimurium, UniProt P0CL08, K294A); test: HilD half-life (degradation) assay by western blot; format: cell-based; settings: HilD K294A-3XFLAG; 20 μM fatty acid
T3 construct: hilD with a C-terminal 3XFLAG tag was cloned into pWSK29 under control of the tetRA promoter; expressed in transfected cells; host or cells: Salmonella Typhimurium strain carrying pWSK29-PtetRA-hilD-3XFLAG (background with chromosomal hilD, hilC and rtsA null)
T3 sequence (P0CL08 1-309 K294A): T1 sequence (P0CL08 1-309 N44A) with A44N, K294A
Description: as §1

[5] = target: T4, HilD (Salmonella typhimurium, UniProt P0CL08); test: HilD half-life (degradation) assay by western blot; format: cell-based; settings: wild type HilD-3XFLAG; grown with 20 μM fatty acid for two hours, protein expression halted
T4 construct: hilD with a C-terminal 3XFLAG tag was cloned into pWSK29 under control of the tetRA promoter; expressed in transfected cells; host or cells: Salmonella Typhimurium strain carrying pWSK29-PtetRA-hilD-3XFLAG (background with chromosomal hilD, hilC and rtsA null)
T4 sequence (P0CL08 1-309): T1 sequence (P0CL08 1-309 N44A) with A44N
Description: as §1

[6] = target: T5, HilD (Salmonella typhimurium, UniProt P0CL08, K293A); test: HilD half-life (degradation) assay by western blot; format: cell-based; settings: HilD K293A-3XFLAG; 20 μM fatty acid
T5 construct: hilD with a C-terminal 3XFLAG tag was cloned into pWSK29 under control of the tetRA promoter; expressed in transfected cells; host or cells: Salmonella Typhimurium strain carrying pWSK29-PtetRA-hilD-3XFLAG (background with chromosomal hilD, hilC and rtsA null)
T5 sequence (P0CL08 1-309 K293A): T1 sequence (P0CL08 1-309 N44A) with A44N, K293A
Description: as §1

[7] = strain expressing wild type HilD

Row | Structure (SMILES) | repression of sipB expression ([1]; strain expressing HilD K43A) | repression of sipB expression ([1]; strain expressing HilD K293A) | repression of sipB expression ([1]; strain expressing HilD K294A) | repression of sipB expression ([1]; strain expressing HilD Q290A) | repression of sipB expression [1, 7] | effect on HilD binding to hilA promoter DNA [2] | HilD degradation [3] | HilD degradation [4] | HilD degradation [5] | HilD degradation [6]
1 | CCCCCCCCCCCCC/C=C\C(=O)O [c2-HDA, cis-2-hexadecenoic acid] | Repression by c2-HDA, however, remained unaffected | No significant repression | No significant repression | Repression by c2-HDA, however, remained unaffected | ~11 fold and 10.9 fold | retained its binding of target DNA | protected from degradation | protected from degradation | Rapid degradation | protected from degradation
2 | CCCCCCCCCCCCC/C=C/C(=O)O [t2-HDA, trans-2-hexadecenoic acid] | – | – | – | – | 5.2 fold | did not disrupt DNA binding | escaped degradation | rapidly degraded | degraded | rapidly degraded
